Patent publication US9073975B2, “Cyclic peptides, their preparation and their use as inhibitors of the platelet adhesion” (SANOFI, priority 2010, dated 2015)
pIC50: −log10 of the molar value. Read-outs that look alike come from different tables or passages of the source. Starred links: 1 amine or outer side, 2 acyl side, 3 side chain; linkers in the order of their positions; H or OH if unused. Positions of bridges follow the written chain, without caps; N, C: chain ends. Non-standard residues stand in square brackets, D forms with d. Residues, ends and D or L forms follow the SMILES beside them. ξ: configuration not given here. X1 = CSCC[C@H](NN[C@@H](CCCNC(=N)N)C(=O)C(=O)[C@H](CCC(=O)O)N[*:2])C(=O)[*:1]; NHCH2(1,3-C6H4)CH2CO = O=C(Cc1cccc(CN[*:1])c1)[*:2]; X3 = O=C(Cc1ccc(CN[*:1])cc1)[*:2]; Cha = N[C@@H](CC1CCCCC1)C(=O)O; Chg = N[C@H](C(=O)O)C1CCCCC1; Nle = CCCC[C@H](N)C(=O)O; Nva = CCC[C@H](N)C(=O)O; Aoc = NCCCCCCCC(=O)O; Ahp = NCCCCCCC(=O)O; Ahx = NCCCCCC(=O)O; ξA = CC(N)C(=O)O

Target: T1, recombinant human vWF-A1 domain (Homo sapiens, UniProt P07359)
T1 construct: whole blood drawn from voluntary donors; made in house; host or cells: E. coli (vWF-A1); washed platelets from human donor blood (GPIb, endogenous)
T1 sequence (P07359 17-652): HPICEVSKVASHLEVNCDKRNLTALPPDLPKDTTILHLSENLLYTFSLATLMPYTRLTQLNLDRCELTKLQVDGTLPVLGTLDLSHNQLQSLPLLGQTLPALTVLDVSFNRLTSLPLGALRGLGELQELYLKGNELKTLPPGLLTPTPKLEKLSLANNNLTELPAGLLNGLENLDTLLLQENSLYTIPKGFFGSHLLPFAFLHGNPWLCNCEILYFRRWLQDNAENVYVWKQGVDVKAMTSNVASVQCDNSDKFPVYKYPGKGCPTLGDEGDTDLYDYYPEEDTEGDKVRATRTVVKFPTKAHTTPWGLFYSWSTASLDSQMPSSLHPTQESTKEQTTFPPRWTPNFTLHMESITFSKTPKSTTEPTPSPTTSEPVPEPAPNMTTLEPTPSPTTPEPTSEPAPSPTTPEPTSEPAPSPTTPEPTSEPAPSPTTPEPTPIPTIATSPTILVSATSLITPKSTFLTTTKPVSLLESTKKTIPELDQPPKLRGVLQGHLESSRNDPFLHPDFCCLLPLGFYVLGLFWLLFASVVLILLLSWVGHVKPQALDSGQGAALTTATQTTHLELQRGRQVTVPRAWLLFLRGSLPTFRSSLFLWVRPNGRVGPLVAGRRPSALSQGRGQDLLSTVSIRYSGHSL
T1 sequence (P13224 26-206 partner): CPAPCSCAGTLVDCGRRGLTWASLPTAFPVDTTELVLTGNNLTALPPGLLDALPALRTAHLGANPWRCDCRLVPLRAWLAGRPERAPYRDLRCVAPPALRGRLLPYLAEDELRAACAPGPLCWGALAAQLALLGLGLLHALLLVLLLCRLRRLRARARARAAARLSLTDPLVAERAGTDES
T1 sequence (P14770 17-177 partner): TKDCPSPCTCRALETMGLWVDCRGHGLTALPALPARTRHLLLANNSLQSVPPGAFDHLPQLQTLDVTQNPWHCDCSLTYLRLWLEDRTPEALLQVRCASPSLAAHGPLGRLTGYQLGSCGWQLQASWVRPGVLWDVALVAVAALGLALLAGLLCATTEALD
Assay: Static human platelet adhesion to recombinant human vWF-A1 domain
Format: cell-based
Description: The activity of compounds of the formula I can be shown by procedures known in the art, for example by determining their inhibition of the binding of platelets to vWF A1 domain in an appropriate assay. To this end, assay plates can be coated with vWF-A1 domain. […] Then fluorescence-labeled thrombocytes are added and incubated for 90 minutes. In a complex washing procedure all non-bound thrombocytes are removed and the plates are measured, for example in a laser-based reader Acumen Explorer or a bulk reader like Spectramax. […] To assess the effect of compounds on the interaction of the GPIb complex on platelets with vWF, an assay system was used measuring binding of human platelets to recombinant human vWF-A1 domain under static conditions in the presence and absence of the compounds. […] Platelet rich plasma was carefully removed, transferred to a fresh container and spun down for 15 min at 120 g. Platelet rich plasma was carefully transferred again to fresh containers, PGE1 (0.5 μg/ml, Sigma) was added and the suspension was allowed to rest for 5 min. This was followed by another centrifugation step for 15 min at 360 g. The supernatant was discarded and the cell pellets were carefully resuspended in tyrode buffer (NaCl, 137 mM (Sigma S-3014); KCl, 2.7 mM (Sigma P-9541); NaHCO3,12 mM ([…] 31437); NaH2PO4×2H2O, 0.36 mM (Merck 6345); […] After 5 min of resting the suspension was spun down for 15 min at 300 g. The supernatant was discarded and the pellets were carefully resuspended in TBS buffer (Tris-HCl, 50 mM (Fluka 93371); NaCl, 120 mM (Sigma S-3014); KCl, 2.7 mM (Sigma P-9541); CaCl2, 0.05 mM (Sigma C-3306); MgCl2×6 H2O, 2 mM (Sigma M-2670); […] The platelet count was adjusted to 2×10^5 cells/μl, and the suspensions from individual donors were pooled at this stage. The platelets were allowed to rest for 30 min at room temperature before calcein AM (2.5 μM per 2×10^5 cells/μl (Molecular Probes C-3099)) was added. This was followed by 15 min incubation in the dark. Cells were diluted to 5×10^4 cells/μl and ReoPro (3 μg/ml (Centocor B. V., Leiden, N L)) was added, followed by a 10 min incubation period in the dark before adding the platelets to the assay plates. 96 well plates (Greiner hb, black, clear bottom, F, 655097) were coated with human recombinant vWF-A1 domain (1.5 μg/well, AA 475-706, expressed in E. coli) in Tris buffer (pH 7.4; Tris-HCl, 25 mM; NaCl, 150 mM) and incubated for 1 h at room temperature. After washing the wells 3× with TBS, blocking buffer (TBS with 5% BSA) was added followed by an incubation for 1 h. The wells were washed again 3× with TBS before 200 μl TBS were added to each well, preventing them from drying out. TBS was flicked out and serial dilutions of the test compound were added. The washed and calcein AM labeled thrombocytes were added to the wells (2.5×10^6 cells/well). Following an adhesion period of 1.5 h in the dark the wells were washed 3× with TBS. Measurement of fluorescence per well was performed in a SpectraMax M5 reader (Molecular Devices). From the raw data % inhibition and IC50 values were calculated.

[1] = washed calcein AM labeled human platelets, static conditions, 1.5 h adhesion, read-out: Activity (IC50 for inhibition of the binding of platelets to vWF A1 domain)

Row | SMILES | pIC50 [1] | pIC50
1 | CSCC[C@@H]1NN[C@@H](CCCNC(=N)N)C(=O)C(=O)[C@H](CCC(=O)O)NC(=O)[C@H]([C@@H](C)O)NC(=O)CCCCCCNC(=O)[C@H](CC(C)C)NC(=O)[C@H](CC(N)=O)NC(=O)[C@H](Cc2cnc[nH]2)NC(=O)[C@H](CC(C)C)NC(=O)C(C)NC1=O (stereo partly drawn) [Example 1, Cyclo[Leu-His-Asn-Leu-NH—(CH2)6—CO-Thr-Glu-Arg-Met-Ala]] ([ξA]LHNL[Ahp]T; linker N-C via X1) | > 6.00 | 
2 | CSCC[C@@H]1NC(=O)[C@H](CCCNC(=N)N)NC(=O)[C@H](CCC(=O)O)NC(=O)[C@H]([C@@H](C)O)NC(=O)Cc2cccc(c2)CNC(=O)[C@H](CC(C)C)NC(=O)[C@H](CC(N)=O)NC(=O)[C@H](Cc2c[nH]cn2)NC(=O)[C@H](CC(C)C)NC(=O)[C@H](C)NC1=O [Example 2, Cyclo[Leu-His-Asn-Leu-NH-X4-X3-X2-X1-CO-Thr-Glu-Arg-Met-Ala]] (cyclo(ALHNL[NHCH2(1,3-C6H4)CH2CO]TERM)) |  | > 6.00
3 | CSCC[C@@H]1NC(=O)[C@H](CCCNC(=N)N)NC(=O)[C@H](CCC(=O)O)NC(=O)[C@H]([C@@H](C)O)NC(=O)Cc2ccc(cc2)CNC(=O)[C@H](CC(C)C)NC(=O)[C@H](CC(N)=O)NC(=O)[C@H](Cc2c[nH]cn2)NC(=O)[C@H](CC(C)C)NC(=O)[C@H](C)NC1=O [Example 3, Cyclo[Leu-His-Asn-Leu-NH-X4-X3-X2-X1-CO-Thr-Glu-Arg-Met-Ala]] (cyclo(ALHNL[X3]TERM)) |  | 5.00 to 6.00
4 | CSCC[C@@H]1NC(=O)[C@H](CCCCN)NC(=O)[C@H](CCC(=O)O)NC(=O)[C@H]([C@@H](C)O)NC(=O)CCCCCCNC(=O)[C@H](CC(C)C)NC(=O)[C@H](CC(N)=O)NC(=O)[C@H](Cc2c[nH]cn2)NC(=O)[C@H](CC(C)C)NC(=O)[C@H](C)NC1=O [Example 7, Cyclo[Leu-His-Asn-Leu-NH—(CH2)6—CO-Thr-Glu-Lys-Met-Ala]] (cyclo(ALHNL[Ahp]TEKM)) | 5.00 to 6.00 | 
5 | CSCC[C@@H]1NC(=O)[C@H](CCCNC(=N)N)NC(=O)[C@H](CCC(=O)O)NC(=O)[C@H](CC(=O)O)NC(=O)CCCCCCNC(=O)[C@H](CC(C)C)NC(=O)[C@H](CC(N)=O)NC(=O)[C@H](Cc2c[nH]cn2)NC(=O)[C@H](CC(C)C)NC(=O)[C@H](C)NC1=O [Example 10, Cyclo[Leu-His-Asn-Leu-NH—(CH2)6—CO-Asp-Glu-Arg-Met-Ala]] (cyclo(ALHNL[Ahp]DERM)) | 5.00 to 6.00 | 
6 | CSCC[C@@H]1NC(=O)[C@H](CCCNC(=N)N)NC(=O)[C@H](CCC(=O)O)NC(=O)[C@H]([C@@H](C)O)NC(=O)CCCCCCNC(=O)[C@H](CC(C)C)NC(=O)[C@H](CC(N)=O)NC(=O)[C@H](Cc2c[nH]cn2)NC(=O)[C@H](CC2CCCCC2)NC(=O)[C@H](C)NC1=O [Example 16, Cyclo[Cha-His-Asn-Leu-NH—(CH2)6—CO-Thr-Glu-Arg-Met-Ala]] (cyclo([Cha]HNL[Ahp]TERMA)) | > 6.00 | 
7 | CC[C@H](C)[C@@H]1NC(=O)[C@H](CCCNC(=N)N)NC(=O)[C@H](CCC(=O)O)NC(=O)[C@H]([C@@H](C)O)NC(=O)CCCCCCNC(=O)[C@H](CC(C)C)NC(=O)[C@H](CC(N)=O)NC(=O)[C@H](Cc2c[nH]cn2)NC(=O)[C@H](CC(C)C)NC(=O)[C@H](C)NC1=O [Example 18, Cyclo[Leu-His-Asn-Leu-NH—(CH2)6—CO-Thr-Glu-Arg-Ile-Ala]] (cyclo(ALHNL[Ahp]TERI)) | 5.00 to 6.00 | 
8 | CCC[C@@H]1NC(=O)[C@H](C)NC(=O)[C@H](CCSC)NC(=O)[C@H](CCCNC(=N)N)NC(=O)[C@H](CCC(=O)O)NC(=O)[C@H]([C@@H](C)O)NC(=O)CCCCCCNC(=O)[C@H](CC(C)C)NC(=O)[C@H](CC(N)=O)NC(=O)[C@H](Cc2c[nH]cn2)NC1=O [Example 19, Cyclo[Nva-His-Asn-Leu-NH—(CH2)6—CO-Thr-Glu-Arg-Met-Ala]] (cyclo(A[Nva]HNL[Ahp]TERM)) | > 6.00 | 
9 | CSCC[C@@H]1NC(=O)[C@H](CCCNC(=N)N)NC(=O)[C@H](CCC(=O)O)NC(=O)[C@H](CC(N)=O)NC(=O)CCCCCCNC(=O)[C@H](CC(C)C)NC(=O)[C@H](CC(N)=O)NC(=O)[C@H](Cc2c[nH]cn2)NC(=O)[C@H](CC(C)C)NC(=O)[C@H](C)NC1=O [Example 22, Cyclo[Leu-His-Asn-Leu-NH—(CH2)6—CO-Asn-Glu-Arg-Met-Ala]] (cyclo(ALHNL[Ahp]NERM)) | > 6.00 | 

Further lines, with some results ahead:

Row | pIC50 [1] | SMILES | pIC50
10 | 5.00 to 6.00 | CSCC[C@@H]1NC(=O)[C@H](CCCNC(=N)N)NC(=O)[C@H](CCC(=O)O)NC(=O)[C@H]([C@@H](C)O)NC(=O)[C@@H](NC(C)=O)CCCCNC(=O)[C@H](CC(C)C)NC(=O)[C@H](CC(N)=O)NC(=O)[C@H](Cc2c[nH]cn2)NC(=O)[C@H](CC(C)C)NC(=O)[C@H](C)NC1=O [Example 5, Cyclo[Leu-His-Asn-Leu-NH-X4-X3-X2-X1-CO-Thr-Glu-Arg-Met-Ala]] (Ac-KTERMALHNL; lactam 1-C) | 
11 | > 6.00 | CSCC[C@@H]1NC(=O)[C@H](CCCNC(=N)N)NC(=O)[C@H](CCC(=O)O)NC(=O)[C@H]([C@@H](C)O)NC(=O)CCCCCCCNC(=O)[C@H](CC(C)C)NC(=O)[C@H](CC(N)=O)NC(=O)[C@H](Cc2c[nH]cn2)NC(=O)[C@H](CC(C)C)NC(=O)[C@H](C)NC1=O [Example 6, Cyclo[Leu-His-Asn-Leu-NH—(CH2)7—CO-Thr-Glu-Arg-Met-Ala]] (cyclo(ALHNL[Aoc]TERM)) | 
12 | 5.00 to 6.00 | CSCC[C@@H]1NC(=O)[C@H](CCCNC(=N)N)NC(=O)[C@H](CCC(=O)O)NC(=O)[C@H]([C@@H](C)O)NC(=O)CCCCCNC(=O)[C@H](CC(C)C)NC(=O)[C@H](CC(N)=O)NC(=O)[C@H](Cc2c[nH]cn2)NC(=O)[C@H](CC(C)C)NC(=O)[C@H](C)NC1=O [Example 11, Cyclo[Leu-His-Asn-Leu-NH—(CH2)5—CO-Thr-Glu-Arg-Met-Ala]] (cyclo(ALHNL[Ahx]TERM)) | 
13 | 5.00 to 6.00 | CCCC[C@@H]1NC(=O)[C@H](C)NC(=O)[C@H](CCSC)NC(=O)[C@H](CCCNC(=N)N)NC(=O)[C@H](CCC(=O)O)NC(=O)[C@H]([C@@H](C)O)NC(=O)CCCCCCNC(=O)[C@H](CC(C)C)NC(=O)[C@H](CC(N)=O)NC(=O)[C@H](Cc2c[nH]cn2)NC1=O [Example 13, Cyclo[Nle-His-Asn-Leu-NH—(CH2)6—CO-Thr-Glu-Arg-Met-Ala]] (cyclo(A[Nle]HNL[Ahp]TERM)) | 
14 | 5.00 to 6.00 | CC[C@H](C)[C@@H]1NC(=O)[C@H](C)NC(=O)[C@H](CCSC)NC(=O)[C@H](CCCNC(=N)N)NC(=O)[C@H](CCC(=O)O)NC(=O)[C@H]([C@@H](C)O)NC(=O)CCCCCCNC(=O)[C@H](CC(C)C)NC(=O)[C@H](CC(N)=O)NC(=O)[C@H](Cc2c[nH]cn2)NC1=O [Example 14, Cyclo[Ile-His-Asn-Leu-NH—(CH2)6—CO-Thr-Glu-Arg-Met-Ala]] (cyclo(AIHNL[Ahp]TERM)) | 
15 | > 6.00 | CC(C)C[C@@H]1NC(=O)[C@H](C)NC(=O)[C@H](CC2CCCCC2)NC(=O)[C@H](CCCNC(=N)N)NC(=O)[C@H](CCC(=O)O)NC(=O)[C@H]([C@@H](C)O)NC(=O)CCCCCCNC(=O)[C@H](CC(C)C)NC(=O)[C@H](CC(N)=O)NC(=O)[C@H](Cc2c[nH]cn2)NC1=O [Example 17, Cyclo[Leu-His-Asn-Leu-NH—(CH2)6—CO-Thr-Glu-Arg-Cha-Ala]] (cyclo(ALHNL[Ahp]TER[Cha])) | 
16 | 5.00 to 6.00 | CSCC[C@@H]1NC(=O)[C@H](CCCNC(=N)N)NC(=O)[C@H](CCC(=O)O)NC(=O)[C@H]([C@@H](C)O)NC(=O)CCCCCCNC(=O)[C@H](CC(C)C)NC(=O)[C@H](CC(N)=O)NC(=O)[C@H](Cc2c[nH]cn2)NC(=O)[C@H](C2CCCCC2)NC(=O)[C@H](C)NC1=O [Example 20, Cyclo[Chg-His-Asn-Leu-NH—(CH2)6—CO-Thr-Glu-Arg-Met-Ala]] (cyclo(A[Chg]HNL[Ahp]TERM)) | 
17 | 5.00 to 6.00 | CSCC[C@@H]1NC(=O)[C@H](CCCNC(=N)N)NC(=O)[C@H](CCC(=O)O)NC(=O)[C@H](Cc2c[nH]cn2)NC(=O)CCCCCCNC(=O)[C@H](CC(C)C)NC(=O)[C@H](CC(N)=O)NC(=O)[C@H](Cc2c[nH]cn2)NC(=O)[C@H](CC(C)C)NC(=O)[C@H](C)NC1=O [Example 21, Cyclo[Leu-His-Asn-Leu-NH—(CH2)6—CO-His-Glu-Arg-Met-Ala]] (cyclo(ALHNL[Ahp]HERM)) | 
